Laboratory results reported in ChEMBL document CHEMBL5726682, “Autotaxin inhibitor compounds” (2017).

Molecular target: Autotaxin (Homo sapiens, UniProt Q13822)
Test: Inhibition Assay: ATX activity is assayed in concentrated conditioned media from Hep3B human hepatocellular carcinoma cells by measuring the amount of choline released from the substrate, lysophosphatidylcholine (LPC) as it is cleaved to LPA. Conditioned media is collected from confluent Hep3B cells and concentrated 20-fold using Centriprep-30 filter devices (Millipore). To assay for autotaxin inhibition, 10-20 μL of the concentrated conditioned media is incubated with 2.5 μL of a test compound in DMSO and 72.5-82.5 μL lyso-PLD buffer (100 mM Tris pH 9, 500 mM NaCl, 5 mM MgCl2, 5 mM CaCl2, 0.05% Triton X-100 in the presence or absence of 0.2% fatty-acid-free human serum albumin) for 15 min at 37° C. After the 15 min incubation, 5 uL of 2 mM LPC (14:0; Avanti Polar Lipids Cat#855575C) diluted in lyso-PLD buffer is added for a final concentration of 100 uM and the incubation continues for 1.5-3 hours at 37° C. 100 μL of a color mix containing 4.5 mM 4-aminoantipyrine, 2.7 mM N-ethyl-N-(2-hydroxy-3-sulfopropyl)-m-toluidine, 21 units/ml horseradish peroxidase and 3 units/mL choline oxidase in 50 mM Tris, pH 8, 4.5 mM MgCl2 is added and the incubation continued for 15 minutes at room temperature before reading the absorbance at 555 nm.

| Structure (SMILES) | IC50 |
| --- | --- |
| Cc1c(Sc2cccc(C(=O)O)c2)c2ccc(Cl)c(F)c2n1CC(=O)N1CCc2ccc(C(F)(F)F)cc21 | < 500 nM |
| Cc1c(Sc2cccc(C(=O)O)c2)c2ccc(Cl)c(F)c2n1CC(=O)N1CCc2c(F)cccc21 | < 500 nM |
| Cc1c(Sc2cccc(C(=O)O)c2)c2ccc(Cl)c(F)c2n1CC(=O)N1CC2(CCN(C)CC2)C1 | < 500 nM |
| Cc1c(Sc2cccc(C(=O)O)c2)c2ccc(Cl)c(F)c2n1CC(=O)N1CC2(CCN(C)CC2)c2ccccc21 | < 500 nM |
| O=C(O)c1cccc(Sc2c(C3CC3)n(CC(=O)N3CCC(O)(C(F)(F)F)C3)c3c(F)c(Cl)ccc23)c1F (centres undefined) | < 500 nM |
| Cc1c(Sc2cccc(C(=O)O)c2)c2ccc(Cl)c(F)c2n1CCC(=O)Nc1ccccc1 | < 500 nM |
| O=C(O)c1cccc(Sc2c(Cl)n(CC(=O)N3CC4(CC4)c4ccccc43)c3c(F)c(Cl)ccc23)c1F | < 500 nM |
| Cc1c(Sc2cccc(C(=O)O)n2)c2ccc(Cl)c(F)c2n1CC(=O)N1CCC(O)(C(F)(F)F)C1 (centres undefined) | < 500 nM |
| Cc1c(Sc2cccc(C(=O)O)c2)c2ccc(Cl)cc2n1C(=O)NCc1ccccc1 | > 3000 nM |
| Cc1c(Sc2cccc(C(=O)O)n2)c2ccc(Cl)c(F)c2n1CC(=O)N1CCC2(CC1)CNC(=O)O2 | < 500 nM |
| Cc1c(Sc2cccc(C(=O)O)c2)c2ccc(Cl)c(F)c2n1CC(=O)N1CCC2(COC2)C1 | < 500 nM |
| O=C(O)c1cccc(Sc2c(Cl)n(CC(=O)N3CCC(O)(C(F)(F)F)C3)c3c(F)c(Cl)ccc23)c1F (centres undefined) | < 500 nM |
| O=C(O)c1cccc(Sc2c(C3CC3)n(CC(=O)N3CC4(CCC4)c4ccccc43)c3c(F)c(Cl)ccc23)c1F | < 500 nM |
| Cc1c(Sc2cccc(C(=O)O)c2)c2ccc(Cl)c(F)c2n1CC(=O)N1CCCCC1CCn1cccn1 (centres undefined) | < 500 nM |
| O=C(O)c1cccc(Sc2c(C3CC3)n(CCN3CC4(CCC4)c4ccccc43)c3c(F)c(Cl)ccc23)c1F | < 500 nM |
| Cc1c(Sc2cccc(C(=O)O)c2F)c2ccc(Cl)c(F)c2n1CC(=O)N1CCC(C(C)(C)O)C1 (centres undefined) | < 500 nM |
| Cc1c(Sc2cccc(C(=O)O)c2)c2ccc(Cl)c(F)c2n1CC(=O)N1CCC(C#N)C1 (centres undefined) | < 500 nM |
| O=C(O)c1cccc(Sc2c(C3CC3)n(CC(=O)N3CC4(CC4)c4ccccc43)c3c(F)c(Cl)ccc23)c1F | < 500 nM |
| Cc1c(Sc2cccc(C(=O)O)c2)c2ccc(Cl)c(F)c2n1CC(=O)N1CCC(c2cnn(C)c2)CC1 | < 500 nM |
